According to patent US8696101B2, “Photopolymerizable inkjet black ink, and ink cartridge, inkjet printer and printed material using the ink, and method of preparing the ink” (Ricoh Company, Ltd., priority 2011, dated 2014):

Key:
[1] = skin sensitization test (LLNA method), OECD test guide line 429; assay type: in vivo; conditions: for Stimulation Index (SI value): photopolymerizable monomers used in clear inks B to K, SI less than 3 = no problem in skin sensitization
Method: The LLNA method is a skin sensitization test specified as OECD test guide line 429, and as shown on page 55 in “Functional Materials” Vol. 25, No. 9 published in September, 2005, the skin sensitization is determined to have no problem when Stimulation Index (SI value) showing a degree of the skin sensitization is less than 3.

[2] = evaluation taken from MSDS; cited from earlier work

Molecule: Polyethoxylated tetramethylolmethanetetraacrylate
- Stimulation Index (SI value) [1]: 1.7

Molecule: Caprolactone-modified dipentaerythritolhexaacrylate
- skin sensitization (from MSDS) [2]: Negative skin

Molecule: C=CC(=O)OCC(C)(C)COC(=O)C=C [Neopentylglycol diacrylate, reference compound]
- skin sensitization of photopolymerizable monomer (positive / negative grouping) ([1]; grouping printed in Table 1): Positive

Molecule: Polyethyleneglycol#400 dimethacrylate
- Stimulation Index (SI value) [1]: 1.3

Molecule: Polyethyleneglycol#600 dimethacrylate
- Stimulation Index (SI value) [1]: 1.6

Molecule: Tricyclodecanedimethanoldimethacrylate
- Stimulation Index (SI value) [1]: 1.3

Molecule: Caprolactone-modified neopentylglycolhydroxypivalate ester
- Stimulation Index (SI value) [1]: 0.9

Molecule: γ-butyrolactone methacrylate
- Stimulation Index (SI value) [1]: 2.1
